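Protocol summary: plate cells (96-well), add compound at 5 concentrations, incubate 48 h, interpolate endpoints linearly. GI50: concentration for 50% inhibition of growth.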 Activity calls are given as the source filed them. No stated cut-off is given here; in the data, active = GI50 up to about 1.1 µM and inactive = higher.
Tests used:
Assay in all cases: NCI anticancer screen, dose series, 48 h
[1] = test system: BT-549
[2] = test system: DLD-1
[3] = test system: DMS-273
[4] = test system: MDA-N
[5] = test system: M19-MEL
[6] = test system: RXF 631
[7] = test system: SNB-78
[8] = test system: HOP-18
[9] = test system: XF498

| Structure (SMILES) | GI50 [1] | GI50 [2] | GI50 [3] | GI50 [4] | GI50 [5] | GI50 [6] | GI50 [7] | GI50 [8] | GI50 [9] |
| --- | --- | --- | --- | --- | --- | --- | --- | --- | --- |
| N=C(N)NCCCC(NCc1c2ccccc2nc2ccccc12)C(=O)O (configuration not stated) | 30.9 µM (inactive) | 17.3 µM (inactive) | 31.3 µM (inactive) | 37.2 µM (inactive) | 58.7 µM (inactive) |  |  |  |  |
| CC(C)CCCCCCCCCCCCC(=O)NCC(=O)NC1C(C)OC(Nc2[nH]cnc3ncnc2-3)C(O)C1O (configuration not stated) |  | 0.01 µM (active) | < 0.01 µM (active) | < 0.01 µM (active) | < 0.01 µM (active) | 3.54e-05 µM (active) | 0.000646 µM (active) | < 0.01 µM (active) | < 0.01 µM (active) |
| Cc1cc2c(c(C(=O)O)c1C)-c1cccc(F)c1C2=O |  | > 100 µM (inactive) | > 100 µM (inactive) |  | > 100 µM (inactive) | > 100 µM (inactive) | > 100 µM (inactive) |  | > 100 µM (inactive) |
| COC(=O)C1=C(O)CCCC(C2CCCCC(=O)C2C(=O)OC)=C1 (configuration not stated) | 78.9 µM (inactive) |  |  | > 100 µM (inactive) |  |  |  |  |  |
| Cc1ccccc1-n1c(=O)sc2c(=O)n(-c3ccccc3)c(=S)[nH]c21 |  | > 100 µM (inactive) | > 100 µM (inactive) |  | > 100 µM (inactive) |  | > 100 µM (inactive) | > 100 µM (inactive) |  |
| N#Cc1cccc(NC(=O)c2ccc(C(=O)O)c(C(=O)c3ccc(C(=O)O)c(C(=O)Nc4cccc(C#N)c4)c3)c2)c1 |  | > 100 µM (inactive) | > 100 µM (inactive) |  | > 100 µM (inactive) |  | > 100 µM (inactive) | > 100 µM (inactive) | > 100 µM (inactive) |
| Cc1c(N2C(=O)/C(=C/c3ccc(N(CCC#N)CCC#N)cc3)N=C2c2ccccc2)c(=O)n(-c2ccccc2)n1C | > 100 µM (inactive) |  |  | > 100 µM (inactive) |  |  |  |  |  |
| c1ccc(NCn2cnc3ccccc32)cc1 |  | 29.2 µM (inactive) | > 100 µM (inactive) |  | > 100 µM (inactive) | > 100 µM (inactive) | > 100 µM (inactive) | > 100 µM (inactive) | > 100 µM (inactive) |
| COc1ccc(/C=C2\CCC/C(=C\c3ccc(O)c(CN4CCCCC4)c3)C2=O)cc1 | 4.65 µM (inactive) |  |  | 3.55 µM (inactive) |  |  |  |  |  |
| CCOP(=O)(/C=C/n1cnc2c(=O)n(C(C)=O)c(N)nc21)OCC | > 100 µM (inactive) |  |  | > 100 µM (inactive) |  |  |  |  |  |
| CC1CC(=O)C(CC(=O)O)C1C(C(=O)C(=O)Nc1c(C#N)cccc1[N+](=O)[O-])[N+](=O)[O-] (configuration not stated) |  | > 100 µM (inactive) |  |  | > 100 µM (inactive) |  | 80.4 µM (inactive) |  | > 100 µM (inactive) |
| C/C=C(/C)C(=O)O[C@H]1[C@H]2[C@@H]([C@@H](OC(C)=O)[C@H](C)C(=O)[C@@]34C[C@@H](C)C(=O)[C@]3(/C=C(\C)[C@H]1OC(C)=O)O4)C2(C)C | 2.84 µM (inactive) |  |  | 1.27 µM (inactive) |  |  |  |  |  |
| COC(=O)CC1(O)C(C=C(C)C)C(C(=O)OC)C(=O)C(C(=O)OC)C1C(=O)OC (configuration not stated) | 11.4 µM (inactive) |  |  | > 100 µM (inactive) |  |  |  |  |  |
| COc1ccc2c(c1)[n+]([O-])c(-c1ccc(OC)c(OC)c1)c(N)[n+]2[O-] |  | 78.9 µM (inactive) | 61.5 µM (inactive) |  | 54.6 µM (inactive) |  | 95.3 µM (inactive) | 43.7 µM (inactive) | > 100 µM (inactive) |
| COC(=O)C(=O)C(C(=O)C(=O)Nc1ccc(F)cc1)c1nc2ccc([N+](=O)[O-])cc2nc1O (configuration not stated) |  | > 100 µM (inactive) |  |  | > 100 µM (inactive) | > 100 µM (inactive) | > 100 µM (inactive) | > 100 µM (inactive) | > 100 µM (inactive) |
| O=C(CSSCC(=O)OCCS(=O)(=O)Nc1ccc(Br)cc1)OCCS(=O)(=O)Nc1ccc(Br)cc1 |  | 15.7 µM (inactive) | 9.51 µM (inactive) |  | 15.1 µM (inactive) |  | 17.1 µM (inactive) | > 100 µM (inactive) |  |
| CN(C)CC[N+]1=Nc2cccc3cccc(c23)N1 |  | > 44.4 µM (inactive) | 17.7 µM (inactive) |  | 47.1 µM (inactive) | 44.5 µM (inactive) | > 100 µM (inactive) |  | > 86.3 µM (inactive) |
| COC(=O)C(=O)C(C(=O)C(=O)Nc1ccc(OC)cc1[N+](=O)[O-])c1nc2ccc([N+](=O)[O-])cc2nc1O (configuration not stated) |  | > 100 µM (inactive) |  |  | > 100 µM (inactive) |  | > 100 µM (inactive) | > 100 µM (inactive) | > 100 µM (inactive) |
| CC[C@@H]1CC[C@@H]2[C@H](CC[C@]3(C)[C@@H](O)CC[C@@H]23)[C@H]1CO | > 100 µM (inactive) |  |  | > 100 µM (inactive) |  |  |  |  |  |
| Nc1ccc(C(=O)NN2C(=O)C(Cl)C2c2cccc(O)c2)cc1 (configuration not stated) |  | 14.4 µM (inactive) | 11 µM (inactive) |  | 21.5 µM (inactive) |  | 17.5 µM (inactive) |  |  |
| NC(=O)C12C3C4C1C1C2C3C41C(N)=O (configuration not stated) |  | > 100 µM (inactive) | > 100 µM (inactive) |  | > 100 µM (inactive) |  |  | > 100 µM (inactive) |  |
| CCOC(=O)C(=Cc1cc(OC)ccc1OC)C(=O)OCC |  | 8.41 µM (inactive) | 3.75 µM (inactive) |  | 4.07 µM (inactive) | 5.81 µM (inactive) |  | 11.4 µM (inactive) | 11.2 µM (inactive) |
| COC(=O)C1=C(C(=O)OC)C23C=CC=CC24C(C(=O)OC)=C(C(=O)OC)C4C1C3 (configuration not stated) |  | > 100 µM (inactive) | 72.9 µM (inactive) |  | > 100 µM (inactive) |  | 67.1 µM (inactive) |  | > 100 µM (inactive) |
